Measurements: publication PMC11579209, “Population pharmacokinetics and exposure–response relationships of maribavir in transplant recipients with cytomegalovirus infection” (Journal of Pharmacokinetics and Pharmacodynamics, 2024)

Legend:
CMV [1] = test: Exposure–response analysis of efficacy, key secondary endpoint: CMV viremia clearance and symptom control at week 8 maintained through week 16 (SOLSTICE); format: in vivo, human
Method: (§1) The exposure–response analyses for maribavir were based on data collected from transplant recipients with CMV infections that were refractory to treatment with ganciclovir, valganciclovir, foscarnet, or cidofovir in the phase 3 SOLSTICE study (ClinicalTrials.gov: NCT02931539). SOLSTICE was a multicenter, open-label, active-controlled study in which patients were randomized 2:1 to receive maribavir 400 mg BID or IAT for 8 weeks, with 12 weeks of follow-up. The primary endpoint was confirmed CMV clearance at the end of week 8, and the key secondary endpoint was achievement of CMV clearance and symptom control at the end of week 8, maintained through week 16. TE CMV mutation conferring resistance to maribavir was assessed as an exploratory endpoint. Full details of the SOLSTICE study have been published previously.
(§2) Posterior Bayes parameters of the final PopPK model were used to derive rich concentration–time profiles for maribavir. Actual dosing history and factors affecting the PK of maribavir (i.e., body weight and time-varying presence of strong CYP3A4 inhibitors or strong CYP3A4 inducers) were considered in the predictions.
(§3) Data set preparation, exploration, visualization of the data and exposure-response analyses were performed using R® (version 4.0.5 for efficacy and resistance analyses; version 4.0.2 for safety analysis) with comprehensive R® archive network (CRAN) and Certara Strategic Consulting (CSC) package. Firth correction on logistic regression was done based on library “logistf”. Logistic regressions with log-linear exposure effect or Emax exposure effect were performed using NONMEM Version VII (version 7.4).
(§4) Maribavir exposure parameters (AUCss, Cmax.ss, and Ctrough.ss) were combined with the primary and key secondary efficacy endpoints, and with TE CMV mutations conferring resistance to maribavir from the SOLSTICE study. The following covariates were included in the dataset to identify potential influencing factors: transplant type (HCT, SOT); CMV DNA level (high, intermediate, low) at baseline; symptom status (symptomatic or asymptomatic) at baseline; CMV resistant at baseline (yes, no); donor (D) and recipient (R) CMV serostatus (D+/R−, D+/R+, or D−/R+, D−/R−); antilymphocyte use (yes, no); immune function status as measured by total white blood cells from hematology panel at baseline; CMV-specific CD4 + CD69 + and CD8 + CD69 + T cells from immune function assay as continuous variables at baseline; enrolling region (North America, Europe, Asia Pacific); prior use of CMV prophylaxis (yes, no); age (as a continuous parameter) and age group (12 to < 18 years; 18 to < 45 years; 45 to < 65 years; ≥65 years); sex (male, female); race and ethnicity; TE CMV maribavir-resistant mutations (yes, no); and temporal identification of maribavir resistance (no, on maribavir treatment, post-maribavir treatment).
(§5) The exposure–response analyses were performed using a logistic regression model whereby a response can be defined as 0 (non-responder) or 1 (responder). Logistic regression analyses were performed to explore potential associations with maribavir exposure and the probability of response. The logistic regression model had the following form, assuming that maribavir exposure is included in the model:1 [drawing 1]
(§6) Pi is the probability of the event in the ith patient and α is the baseline Ln (odds) of the event. The model assumes a linear exposure effect on logit scale, with the parameter α representing the intercept, while β1 represents the slope linking the exposure parameter (X1) of maribavir (AUCss, Cmax.ss, and Ctrough.ss) to the response. The statistical significance of α and β1 was tested in the logistic regression models with a p value of < 0.05, and 95% CIs were provided for each parameter. The odds ratio (OR) for β1 was derived for a specific unit increment of the PK parameter. […]

CMV [2] = test: Exposure–response analysis of efficacy, primary endpoint: confirmed CMV viremia clearance at week 8 (SOLSTICE); format: in vivo, human; conditions: for Probability of being responder, primary endpoint: AUCss 200 µg∙h/mL
Method: as §1, §2, §3, §4, §5, §6

[3] = key secondary endpoint, reference <0.5%
[4] = primary endpoint, reference < 0.5%

## CC(C)Nc1nc2cc(Cl)c(Cl)cc2n1[C@H]1O[C@@H](CO)[C@H](O)[C@@H]1O [maribavir]
CMV [1]; 1st quartile of AUCss
  Proportion of responders, key secondary endpoint: 31%
CMV [1]; 2nd quartile of AUCss
  Proportion of responders, key secondary endpoint: 25%
CMV [1]; 3rd quartile of AUCss, n = 9
  Proportion of responders, key secondary endpoint: 16%
CMV [1]; 4th quartile of AUCss, n = 3
  Proportion of responders, key secondary endpoint: 5%
CMV [1]; baseline CD8 + CD69 + cell count ≥ 2%, otherwise reference, AUCss 200 µg∙h/mL
  Probability of being a responder, key secondary endpoint: 77.9%
CMV [1]; developed TE CMV maribavir-resistant mutation, CD8 + CD69 + < 0.5%, low CMV DNA, no prior prophylaxis, AUCss 200 µg∙h/mL
  Probability of being a responder, key secondary endpoint: 2.5%
CMV [1]; exposure–response population n = 231, 400 mg BID, 44 patients
  Patients meeting key secondary endpoint (clearance and symptom control at week 8, maintained through week 16): 19%
CMV [1]; intermediate/high CMV DNA levels, otherwise reference, AUCss 200 µg∙h/mL
  Probability of being a responder, key secondary endpoint: 19.7%
CMV [1]; key secondary endpoint
  Logistic regression Estimate (SE): Intercept: 0.814 (0.543)
  OR (95% CI): prior use of CMV prophylaxis: 0.441 (0.191, 0.969)
  OR (95% CI): treatment-emergent CMV mutation conferring resistance to maribavir: 0.0381 (2.97×10^–4, 0.284)
CMV [1]; key secondary endpoint, increment of 50 µg·h/mL
  OR (95% CI): AUCss of maribavir: 0.740 (0.611, 0.870)
CMV [1]; [3]
  Logistic regression Estimate (SE): baseline CD8+CD69+ cell count ≥2%: 1.65 (0.552)
  OR (95% CI): baseline CD8+CD69+ cell count not reported: 0.899 (0.326, 2.34)
  OR (95% CI): baseline CD8+CD69+ cell count ≥0.5% to <2%: 0.594 (0.159, 1.88)
  OR (95% CI): baseline CD8+CD69+ cell count ≥2%: 5.18 (1.82, 15.9)
CMV [1]; key secondary endpoint, reference low
  OR (95% CI): baseline CMV DNA level intermediate/high: 0.363 (0.129, 0.910)
CMV [1]; p = 0.001
  Relationship between maribavir exposure (AUCss) and probability of response for the key secondary endpoint: negative relationship
CMV [1]; prior use of CMV prophylaxis, otherwise reference, AUCss 200 µg·h/mL
  Probability of being a responder, key secondary endpoint: 23.0%
CMV [1]; reference: no TE mutation, CD8 + CD69 + < 0.5%, low CMV DNA, no prior prophylaxis, AUCss 200 µg∙h/mL
  Probability of being a responder, key secondary endpoint: 40.3%
CMV [2]; 1st quartile of AUCss (range 72.2–170)
  Observed proportion of responders, primary endpoint: 59%
CMV [2]; 2nd quartile of AUCss (range 170–238)
  Observed proportion of responders, primary endpoint: 72%
CMV [2]; 3rd quartile of AUCss (range 238–354)
  Observed proportion of responders, primary endpoint: 59%
CMV [2]; 4th quartile of AUCss (range 354–802)
  Observed proportion of responders, primary endpoint: 38%
CMV [2]; CD8 + CD69 + cell count ≥ 2%, no TE mutation
  Probability of being responder, primary endpoint: 90.0%
CMV [2]; developed TE CMV maribavir-resistant mutation, CD8 + CD69 + < 0.5%
  Probability of being responder, primary endpoint: 1.3%
CMV [2]; excluding 60 patients with TE CMV mutation conferring resistance, n = 171, p = 0.0709
  Relationship between maribavir exposure and probability of CMV viremia clearance at week 8: no statistical exposure–efficacy relationship
CMV [2]; exposure–response population n = 231, 400 mg BID, 131 patients
  Patients meeting primary endpoint of confirmed CMV viremia clearance at week 8: 57%
CMV [2]; n = 231, p = 0.008
  Relationship between maribavir exposure (AUCss) and probability of CMV viremia clearance at week 8: negative relationship
CMV [2]; no TE CMV maribavir-resistant mutation, CD8 + CD69 + < 0.5%
  Probability of being responder, primary endpoint: 74.2%
CMV [2]; primary endpoint
  OR (95% CI): treatment-emergent maribavir resistance on maribavir treatment: 0.00457 (3.59 × 10^–5, 0.0333)
CMV [2]; primary endpoint, week 8
  Non-responders among patients with TE maribavir-resistant CMV mutations: 81%
CMV [2]; [4]
  Logistic regression Estimate (SE): baseline CD8+CD69+ cell count ≥2%: 1.19 (0.630)
  OR (95% CI): baseline CD8+CD69+ cell count not reported: 0.730 (0.328, 1.66)
  OR (95% CI): baseline CD8+CD69+ cell count ≥0.5% to <2%: 0.739 (0.289, 1.98)
  OR (95% CI): baseline CD8+CD69+ cell count ≥2%: 3.29 (1.07, 13.4)
